Test results: patent US10968172B2, “USP30 inhibitors” (Mitobridge, Inc., priority 2017, dated 2021)

molecular target: USP30 (Homo sapiens (Human), UniProt Q70CQ3); experiment: In vitro biochemical assay for USP30 enzyme (Ubiquitin-Rhodamine110 cleavage, fluorescence); details: 20 nM USP30, 15 min pre-incubation, 100 nM Ub rhodamine substrate, 2 hrs at room temperature
Method: In vitro biochemical assay for USP30 enzyme
The in vitro assay for USP30 evaluates the ability of a test compound to inhibit the activity of the enzyme to cleave ubiquitin from a substrate. Ubiquitin-rhodamine 110 is a quenched, fluorescent substrate for USP30. Cleavage of the amide bond between the C-terminal glycine of ubiquitin and rhodamine results in an increase in rhodamine fluorescence at 535 nm (Exc. 485 nm).
Incubation of the substrate in the presence or absence of USP30 was compared to confirm the deubiquitylating activity of USP30. The USP30 enzyme assay was performed by pre-incubating 20 nM of USP30 with varying concentration of a test compound in the assay buffer [PBS (pH 7.4), 1 mM DTT, 0.01% Tween 20, 0.01% BSA, DMSO final concentration is 1%] for 15 mins at room temperature, following which 100 nM of substrate Ub rhodamine was added and incubated at room temperature for 2 hrs and the plate was read for fluorescence intensity at Ex. 485 nm/535 nm in VICTOR X5 plate reader. The percent inhibition of activity of the enzyme is calculated by comparing counts in the presence and absence of compounds.
Test compounds were screened at various concentrations (10-12 tested concentrations) and dose response curves were generated was generated using GraphPad Prism software Version 7 (San Diego, Calif., USA) with non-linear regression curve fit for sigmoidal dose response (variable slope).

Sequence of USP30 (Q70CQ3 whole entry): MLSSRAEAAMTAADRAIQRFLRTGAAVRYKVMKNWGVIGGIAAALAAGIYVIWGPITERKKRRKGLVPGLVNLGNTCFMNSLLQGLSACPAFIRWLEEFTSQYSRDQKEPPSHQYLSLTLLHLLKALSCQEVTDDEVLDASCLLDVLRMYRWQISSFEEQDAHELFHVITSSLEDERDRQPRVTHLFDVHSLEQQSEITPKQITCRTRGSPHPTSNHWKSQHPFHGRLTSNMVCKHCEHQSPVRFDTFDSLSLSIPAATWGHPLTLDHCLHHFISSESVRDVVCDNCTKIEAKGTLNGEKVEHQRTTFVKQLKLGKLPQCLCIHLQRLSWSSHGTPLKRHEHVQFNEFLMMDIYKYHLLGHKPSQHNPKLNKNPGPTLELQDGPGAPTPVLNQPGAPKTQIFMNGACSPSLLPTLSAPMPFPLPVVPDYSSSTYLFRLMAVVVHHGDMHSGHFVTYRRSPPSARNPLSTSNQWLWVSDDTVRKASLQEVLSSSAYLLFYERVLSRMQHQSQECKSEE

| IC50 | Compound |
| --- | --- |
| 248 nM | CC(C)(C)NS(=O)(=O)c1cccc2c(NC(=O)[C@@H](Cc3ccccc3)NC(=O)c3ccccc3)cccc12 [Compound 4a, (R)-N-(1-((5-(N-(tert-butyl)sulfamoyl)naphthalen-1-yl)amino)-1-oxo-3-phenylpropan-2-yl)benzamide] |
| 273 nM | CC(C)(C)NS(=O)(=O)c1cccc2c(NC(=O)[C@H](Cc3ccccc3)NC(=O)c3ccccc3)cccc12 [Compound 4b, (S)—N-(1-((5-(N-(tert-butyl)sulfamoyl)naphthalen-1-yl)amino)-1-oxo-3-phenylpropan-2-yl)benzamide] |
| > 10000 nM | CC(C)(C)NS(=O)(=O)c1cccc2c(NC(=O)[C@H](Cc3ccccc3)NC(=O)C3CC3)cccc12 [Compound 4d, (S)-N-(1-((5-(N-(tert-butyl)sulfamoyl)naphthalen-1-yl)amino)-1-oxo-3-phenylpropan-2-yl)cyclopropanecarboxamide] |
| 1800 nM | CC(C)(C)NS(=O)(=O)c1cccc2c(NC(=O)[C@H](Cc3ccccc3)NC(=O)c3cccs3)cccc12 [Compound 4h, (S)-N-(1-((5-(N-(tert-butyl)sulfamoyl)naphthalen-1-yl)amino)-1-oxo-3-phenylpropan-2-yl)thiophene-2-carboxamide] |
| > 10000 nM | Cc1cccc(C(=O)N[C@@H](Cc2ccccc2)C(=O)Nc2cccc3c(S(=O)(=O)NC(C)(C)C)cccc23)n1 [Compound 4m, (S)-N-(1-((5-(N-(tert-butyl)sulfamoyl)naphthalen-1-yl)amino)-1-oxo-3-phenylpropan-2-yl)-6-methylpicolinamide] |
| > 10000 nM | CC(C)(C)NS(=O)(=O)c1cccc2c(NC(=O)[C@H](Cc3ccccc3)NC(=O)c3ncccn3)cccc12 [Compound 4o, (S)-N-(1-((5-(N-(tert-butyl)sulfamoyl)naphthalen-1-yl)amino)-1-oxo-3-phenylpropan-2-yl)pyrimidine-2-carboxamide] |
| 180 nM | CC(C)(C)NS(=O)(=O)c1cccc2c(NC(=O)[C@H](Cc3ccccc3)NC(=O)c3nccs3)cccc12 [Compound 4q, (S)-N-(1-((5-(N-(tert-butyl)sulfamoyl)naphthalen-1-yl)amino)-1-oxo-3-phenylpropan-2-yl)thiazole-2-carboxamide] |
| > 10000 nM | CC(C)(C)NS(=O)(=O)c1cccc2c(NC(=O)[C@H](Cc3ccccc3)NC(=O)c3ccc(O)cc3)cccc12 [Compound 4w, (S)-N-(1-((5-(N-(tert-butyl)sulfamoyl)naphthalen-1-yl)amino)-1-oxo-3-phenylpropan-2-yl)-4-hydroxybenzamide] |
| 170 nM | CC(C)(C)NS(=O)(=O)c1cccc2c(NC(=O)[C@H](Cc3ccccc3)NC(=O)c3ccccn3)cccc12 [Compound 4x, (S)-N-(1-((5-(N-(tert-butyl)sulfamoyl)naphthalen-1-yl)amino)-1-oxo-3-phenylpropan-2-yl)picolinamide] |
| 1900 nM | CC(C)(C)NS(=O)(=O)c1cccc2c(NC(=O)[C@H](Cc3ccccc3)NC(=O)c3ccc[nH]3)cccc12 [Compound 4y, (S)-N-(1-((5-(N-(tert-butyl)sulfamoyl)naphthalen-1-yl)amino)-1-oxo-3-phenylpropan-2-yl)-1H-pyrrole-2-carboxamide] |
| > 10000 nM | CC(C)(C)NS(=O)(=O)c1cccc2c(NC(=O)[C@H](Cc3ccccc3)NC(=O)c3ccco3)cccc12 [Compound 4z, (S)-N-(1-((5-(N-(tert-butyl)sulfamoyl)naphthalen-1-yl)amino)-1-oxo-3-phenylpropan-2-yl)furan-2-carboxamide] |

More lines, now with the values behind:

| Compound | IC50 |
| --- | --- |
| CC(C)(C)NS(=O)(=O)c1cccc2c(NC(=O)[C@H](Cc3ccccc3)NC(=O)C3CCCCC3)cccc12 [Compound 4c, (S)-N-(1-((5-(N-(tert-butyl)sulfamoyl)naphthalen-1-yl)amino)-1-oxo-3-phenylpropan-2-yl)cyclohexanecarboxamide] | 125 nM |
| CC(C)(C)NS(=O)(=O)c1cccc2c(NC(=O)[C@H](Cc3ccccc3)NC(=O)Cc3ccccc3)cccc12 [Compound 4e, (S)-N-(5-(N-(tert-butyl)sulfamoyl)naphthalen-1-yl)-3-phenyl-2-(2-phenylacetamido)propanamide] | > 10000 nM |
| CC(C)(C)NS(=O)(=O)c1cccc2c(NC(=O)[C@H](Cc3ccccc3)NC(=O)CCc3ccccc3)cccc12 [Compound 4f, (S)-N-(5-(N-(tert-butyl)sulfamoyl)naphthalen-1-yl)-3-phenyl-2-(3-phenylpropanamido)propanamide] | > 10000 nM |
| Cc1ccc(C(=O)N[C@@H](Cc2ccccc2)C(=O)Nc2cccc3c(S(=O)(=O)NC(C)(C)C)cccc23)cc1 [Compound 4i, (S)-N-(1-((5-(N-(tert-butyl)sulfamoyl)naphthalen-1-yl)amino)-1-oxo-3-phenylpropan-2-yl)-4-methylbenzamide] | 2500 nM |
| CC(C)(C)NS(=O)(=O)c1cccc2c(NC(=O)[C@H](Cc3ccccc3)NC(=O)c3ccc(F)cc3)cccc12 [Compound 4j, (S)-N-(1-((5-(N-(tert-butyl)sulfamoyl)naphthalen-1-yl)amino)-1-oxo-3-phenylpropan-2-yl)-4-fluorobenzamide] | 49 nM |
| CC(C)(C)NS(=O)(=O)c1cccc2c(NC(=O)[C@H](Cc3ccccc3)NC(=O)C3CCOCC3)cccc12 [Compound 4k, (S)-N-(1-((5-(N-(tert-butyl)sulfamoyl)naphthalen-1-yl)amino)-1-oxo-3-phenylpropan-2-yl)tetrahydro-2H-pyran-4-carboxamide] | > 10000 nM |
| CC(C)(C)NS(=O)(=O)c1cccc2c(NC(=O)[C@H](Cc3ccccc3)NC(=O)C3CCCC3)cccc12 [Compound 4l, (S)-N-(1-((5-(N-(tert-butyl)sulfamoyl)naphthalen-1-yl)amino)-1-oxo-3-phenylpropan-2-yl)cyclopentanecarboxamide] | 366 nM |
| CC(C)(C)NS(=O)(=O)c1cccc2c(NC(=O)[C@H](Cc3ccccc3)NC(=O)C3CCC(F)(F)CC3)cccc12 [Compound 4n, (S)—N-(1-((5-(N-(tert-butyl)sulfamoyl)naphthalen-1-yl)amino)-1-oxo-3-phenylpropan-2-yl)-4,4-difluorocyclohexane-1-carboxamide] | 98 nM |
| CC(C)(C)NS(=O)(=O)c1cccc2c(NC(=O)[C@H](Cc3ccccc3)NC(=O)C3CCCCCC3)cccc12 [Compound 4p, (S)-N-(1-((5-(N-(tert-butyl)sulfamoyl)naphthalen-1-yl)amino)-1-oxo-3-phenylpropan-2-yl)cycloheptanecarboxamide] | 4300 nM |
| CC(C)(C)NS(=O)(=O)c1cccc2c(NC(=O)[C@H](Cc3ccccc3)NC(=O)c3ccc(C#N)cc3)cccc12 [Compound 4r, (S)-N-(1-((5-(N-(tert-butyl)sulfamoyl)naphthalen-1-yl)amino)-1-oxo-3-phenylpropan-2-yl)-4-cyanobenzamide] | 269 nM |
| CC(C)(C)NS(=O)(=O)c1cccc2c(NC(=O)[C@H](Cc3ccccc3)NC(=O)C34CC5CC(CC(C5)C3)C4)cccc12 [Compound 4s] | > 10000 nM |
| CC1CCC(C(=O)N[C@@H](Cc2ccccc2)C(=O)Nc2cccc3c(S(=O)(=O)NC(C)(C)C)cccc23)CC1 (stereo partly drawn) [Compound 4t, (S)-N-(1-((5-(N-(tert-butyl)sulfamoyl)naphthalen-1-yl)amino)-1-oxo-3-phenylpropan-2-yl)-4-methylcyclohexane-1-carboxamide] | > 10000 nM |
| CC(C)(C)NS(=O)(=O)c1cccc2c(NC(=O)[C@H](Cc3ccccc3)NC(=O)C3CCCO3)cccc12 (stereo partly drawn) [Compound 4u, N-((S)-1-((5-(N-(tert-butyl)sulfamoyl)naphthalen-1-yl)amino)-1-oxo-3-phenylpropan-2-yl)tetrahydrofuran-2-carboxamide] | > 10000 nM |
| COc1ccc(C(=O)N[C@@H](Cc2ccccc2)C(=O)Nc2cccc3c(S(=O)(=O)NC(C)(C)C)cccc23)cc1 [Compound 4v, (S)-N-(1-((5-(N-(tert-butyl)sulfamoyl)naphthalen-1-yl)amino)-1-oxo-3-phenylpropan-2-yl)-4-methoxybenzamide] | 9000 nM |
| CC(C)C[C@H](NC(=O)c1ccccc1)C(=O)Nc1cccc2c(S(=O)(=O)NC(C)(C)C)cccc12 [Compound 7a, (S)-N-(1-((5-(N-(tert-butyl)sulfamoyl)naphthalen-1-yl)amino)-4-methyl-1-oxopentan-2-yl)benzamide] | 4300 nM |
| CC(C)(C)NS(=O)(=O)c1cccc2c(NC(=O)[C@H](Cc3ccc(O)cc3)NC(=O)c3ccccc3)cccc12 [Compound 7b, (S)-N-(1-((5-(N-(tert-butyl)sulfamoyl)naphthalen-1-yl)amino)-3-(4-hydroxyphenyl)-1-oxopropan-2-yl)benzamide] | 520 nM |
| CC(C)(C)NS(=O)(=O)c1cccc2c(NC(=O)[C@H](CC3CCCCC3)NC(=O)c3ccccc3)cccc12 [Compound 7c, (S)-N-(1-((5-(N-(tert-butyl)sulfamoyl)naphthalen-1-yl)amino)-3-cyclohexyl-1-oxopropan-2-yl)benzamide] | 666 nM |
| CC(C)(C)NS(=O)(=O)c1cccc2c(NC(=O)[C@H](Cc3ccccc3Cl)NC(=O)c3ccccc3)cccc12 [Compound 7d, (S)-N-(1-((5-(N-(tert-butyl)sulfamoyl)naphthalen-1-yl)amino)-3-(2-chlorophenyl)-1-oxopropan-2-yl)benzamide] | > 10000 nM |
